The text below walks through data of ChEMBL document CHEMBL5029162, “4-Pyridone-3-carboxylic acid as a benzoic acid bioisostere: Design, synthesis, and evaluation of EP300/CBP histone acetyltransferase inhibitors” (Bioorg Med Chem Lett, 2021).

pIC50: −log10 of the molar value.

One assay has as its target CREB-binding protein (Homo sapiens, UniProt Q92793). The experiment in a line: Inhibition of CBP (unknown origin).
The target of assay [1] is Histone acetyltransferase KAT6B (Homo sapiens, UniProt Q8WYB5). The experiment in a line: Inhibition of MYST4 (unknown origin).
In assay [2] the target is Histone acetyltransferase KAT2A (Homo sapiens, UniProt Q92830). As to the kind of experiment: Inhibition of GCN5 (unknown origin).

Sequence of Histone acetyltransferase KAT6B (Q8WYB5 whole entry): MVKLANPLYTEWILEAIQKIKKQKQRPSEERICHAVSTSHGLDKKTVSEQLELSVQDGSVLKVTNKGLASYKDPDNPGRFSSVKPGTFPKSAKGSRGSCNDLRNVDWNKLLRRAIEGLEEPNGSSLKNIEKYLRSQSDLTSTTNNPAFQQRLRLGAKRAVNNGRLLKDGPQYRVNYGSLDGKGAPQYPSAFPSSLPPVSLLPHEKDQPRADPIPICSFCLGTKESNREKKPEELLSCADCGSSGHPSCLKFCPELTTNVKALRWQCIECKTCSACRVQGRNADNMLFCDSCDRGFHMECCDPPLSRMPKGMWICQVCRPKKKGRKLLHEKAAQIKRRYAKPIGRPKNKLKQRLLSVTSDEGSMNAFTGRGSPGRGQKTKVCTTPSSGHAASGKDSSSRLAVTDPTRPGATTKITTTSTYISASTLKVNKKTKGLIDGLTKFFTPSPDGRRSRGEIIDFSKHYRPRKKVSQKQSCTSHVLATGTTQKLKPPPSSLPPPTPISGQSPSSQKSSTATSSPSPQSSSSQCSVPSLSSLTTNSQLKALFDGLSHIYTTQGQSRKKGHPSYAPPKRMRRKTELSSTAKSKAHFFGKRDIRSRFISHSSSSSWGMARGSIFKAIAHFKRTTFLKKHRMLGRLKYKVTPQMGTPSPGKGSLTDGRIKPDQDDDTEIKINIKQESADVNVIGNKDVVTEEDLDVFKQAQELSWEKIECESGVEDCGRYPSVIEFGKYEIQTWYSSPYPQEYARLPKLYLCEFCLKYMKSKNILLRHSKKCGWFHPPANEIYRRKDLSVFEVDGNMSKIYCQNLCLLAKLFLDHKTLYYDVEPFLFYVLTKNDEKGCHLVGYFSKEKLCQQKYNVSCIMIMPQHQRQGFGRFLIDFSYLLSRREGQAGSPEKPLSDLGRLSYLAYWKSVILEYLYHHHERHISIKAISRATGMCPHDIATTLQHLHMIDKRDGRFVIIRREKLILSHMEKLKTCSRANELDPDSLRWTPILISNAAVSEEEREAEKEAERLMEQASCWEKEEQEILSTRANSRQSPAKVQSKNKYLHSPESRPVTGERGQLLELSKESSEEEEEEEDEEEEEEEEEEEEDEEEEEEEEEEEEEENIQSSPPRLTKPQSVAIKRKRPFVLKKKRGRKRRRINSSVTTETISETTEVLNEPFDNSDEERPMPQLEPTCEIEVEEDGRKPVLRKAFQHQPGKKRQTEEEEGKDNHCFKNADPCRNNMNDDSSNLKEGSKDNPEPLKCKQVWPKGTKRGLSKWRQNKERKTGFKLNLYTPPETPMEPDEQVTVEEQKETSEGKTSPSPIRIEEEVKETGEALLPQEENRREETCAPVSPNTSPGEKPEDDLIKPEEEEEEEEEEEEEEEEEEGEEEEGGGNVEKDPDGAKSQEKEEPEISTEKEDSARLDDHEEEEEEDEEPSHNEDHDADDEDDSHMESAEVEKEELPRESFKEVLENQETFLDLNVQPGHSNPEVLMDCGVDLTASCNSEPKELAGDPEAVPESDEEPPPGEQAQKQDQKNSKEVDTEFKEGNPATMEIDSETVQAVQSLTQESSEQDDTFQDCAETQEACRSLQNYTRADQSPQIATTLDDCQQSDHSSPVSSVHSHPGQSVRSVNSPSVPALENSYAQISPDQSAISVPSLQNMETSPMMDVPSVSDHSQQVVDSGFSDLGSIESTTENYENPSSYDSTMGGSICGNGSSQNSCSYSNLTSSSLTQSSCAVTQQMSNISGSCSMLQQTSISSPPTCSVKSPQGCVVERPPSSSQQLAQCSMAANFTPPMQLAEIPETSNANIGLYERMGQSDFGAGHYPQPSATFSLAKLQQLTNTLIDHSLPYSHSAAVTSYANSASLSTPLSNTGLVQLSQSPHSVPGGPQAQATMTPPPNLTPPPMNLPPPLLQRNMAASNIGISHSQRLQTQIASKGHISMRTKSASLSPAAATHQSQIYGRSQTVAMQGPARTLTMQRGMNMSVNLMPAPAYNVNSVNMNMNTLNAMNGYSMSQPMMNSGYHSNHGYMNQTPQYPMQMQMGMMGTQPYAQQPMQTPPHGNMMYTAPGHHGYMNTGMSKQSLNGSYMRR
Sequence of CREB-binding protein (Q92793 whole entry): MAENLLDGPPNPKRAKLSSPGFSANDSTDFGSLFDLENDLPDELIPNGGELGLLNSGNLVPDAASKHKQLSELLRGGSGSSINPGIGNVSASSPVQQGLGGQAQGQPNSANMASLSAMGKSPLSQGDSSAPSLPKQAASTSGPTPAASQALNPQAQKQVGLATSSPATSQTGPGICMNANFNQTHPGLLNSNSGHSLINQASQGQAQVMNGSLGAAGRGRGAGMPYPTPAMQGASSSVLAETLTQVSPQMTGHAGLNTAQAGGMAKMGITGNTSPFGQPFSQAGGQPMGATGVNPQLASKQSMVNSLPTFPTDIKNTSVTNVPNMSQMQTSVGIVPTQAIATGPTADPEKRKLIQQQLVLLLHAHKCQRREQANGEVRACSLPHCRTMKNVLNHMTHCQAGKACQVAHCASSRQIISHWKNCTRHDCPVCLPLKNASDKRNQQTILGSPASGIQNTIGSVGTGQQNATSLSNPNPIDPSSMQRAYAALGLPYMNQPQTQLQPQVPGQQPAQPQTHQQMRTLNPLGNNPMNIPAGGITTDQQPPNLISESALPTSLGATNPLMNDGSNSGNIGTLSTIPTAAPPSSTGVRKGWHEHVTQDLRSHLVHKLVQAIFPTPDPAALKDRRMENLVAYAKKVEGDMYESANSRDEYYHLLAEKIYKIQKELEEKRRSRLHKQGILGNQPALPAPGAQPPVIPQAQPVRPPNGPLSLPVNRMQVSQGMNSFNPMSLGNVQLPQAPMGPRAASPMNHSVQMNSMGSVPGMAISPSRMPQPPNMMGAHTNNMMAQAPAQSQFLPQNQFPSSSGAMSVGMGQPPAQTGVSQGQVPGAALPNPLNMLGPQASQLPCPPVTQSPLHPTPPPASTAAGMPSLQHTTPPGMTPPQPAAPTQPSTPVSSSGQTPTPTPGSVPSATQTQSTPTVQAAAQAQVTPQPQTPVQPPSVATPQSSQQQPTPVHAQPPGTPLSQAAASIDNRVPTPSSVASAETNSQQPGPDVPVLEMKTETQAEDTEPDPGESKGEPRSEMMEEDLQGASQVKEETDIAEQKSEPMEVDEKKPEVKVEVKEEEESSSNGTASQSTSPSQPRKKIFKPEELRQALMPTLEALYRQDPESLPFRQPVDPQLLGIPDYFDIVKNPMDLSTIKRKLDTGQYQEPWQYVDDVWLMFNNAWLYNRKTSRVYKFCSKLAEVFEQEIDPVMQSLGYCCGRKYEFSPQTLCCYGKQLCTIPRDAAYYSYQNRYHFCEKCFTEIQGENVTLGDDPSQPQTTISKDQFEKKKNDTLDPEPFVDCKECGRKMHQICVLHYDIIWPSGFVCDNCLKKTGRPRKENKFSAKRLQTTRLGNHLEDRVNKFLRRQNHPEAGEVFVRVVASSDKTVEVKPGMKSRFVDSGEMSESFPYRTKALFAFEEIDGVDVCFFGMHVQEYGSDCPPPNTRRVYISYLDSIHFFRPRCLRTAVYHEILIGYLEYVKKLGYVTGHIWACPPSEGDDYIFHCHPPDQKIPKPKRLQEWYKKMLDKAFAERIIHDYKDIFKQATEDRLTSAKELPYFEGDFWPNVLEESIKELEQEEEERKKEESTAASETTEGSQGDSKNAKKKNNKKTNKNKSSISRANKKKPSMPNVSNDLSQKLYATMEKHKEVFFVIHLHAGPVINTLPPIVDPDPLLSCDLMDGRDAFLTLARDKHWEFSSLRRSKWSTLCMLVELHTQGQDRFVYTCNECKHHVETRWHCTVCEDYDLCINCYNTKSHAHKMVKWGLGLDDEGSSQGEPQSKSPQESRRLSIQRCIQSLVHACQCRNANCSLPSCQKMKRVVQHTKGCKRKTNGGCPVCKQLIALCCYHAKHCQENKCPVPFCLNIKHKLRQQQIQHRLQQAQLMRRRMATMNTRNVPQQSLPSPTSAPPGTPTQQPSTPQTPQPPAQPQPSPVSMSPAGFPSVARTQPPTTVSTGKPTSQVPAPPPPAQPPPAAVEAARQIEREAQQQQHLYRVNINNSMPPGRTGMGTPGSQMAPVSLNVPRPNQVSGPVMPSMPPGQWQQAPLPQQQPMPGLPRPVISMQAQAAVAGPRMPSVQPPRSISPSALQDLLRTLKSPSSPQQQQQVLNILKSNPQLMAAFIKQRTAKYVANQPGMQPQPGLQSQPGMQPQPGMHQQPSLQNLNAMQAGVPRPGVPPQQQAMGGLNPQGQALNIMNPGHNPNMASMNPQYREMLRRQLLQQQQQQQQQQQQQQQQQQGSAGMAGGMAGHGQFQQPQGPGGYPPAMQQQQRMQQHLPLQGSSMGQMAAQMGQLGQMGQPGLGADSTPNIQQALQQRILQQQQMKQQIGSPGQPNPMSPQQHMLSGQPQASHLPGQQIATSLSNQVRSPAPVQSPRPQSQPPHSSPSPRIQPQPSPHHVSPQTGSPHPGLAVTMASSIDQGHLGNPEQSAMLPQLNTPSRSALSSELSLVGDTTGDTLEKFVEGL

As for `COC1=C(Cc2ccc(-c3cn(C)cc(C(=O)O)c3=O)s2)C(=O)N(c2ccc3ccccc3c2)C1`, the pIC50 is 5.47 at CREB-binding protein, less than 4.30 in assay [1] and less than 4.30 in assay [2].

As for `COC1=C(Cc2ccc(-c3cn(Cc4ccccc4)cc(C(=O)O)c3=O)s2)C(=O)N(c2ccc3ccccc3c2)C1`, the pIC50 at CREB-binding protein was 5.89; in assay [1], less than 4.30; in assay [2], less than 4.30.
